# Results published in PubChem BioAssay AID330 (DTP/NCI, 2004).
# “And” between values parts separate entries of the source, which are not always exact repeats. Equal values may be shown once. Inconclusive results and toxic doses are left out.
# Test system: P388 leukemia ip, CD2F1 mice, survival T/C
# Test: NCI In Vivo Anticancer Drug Screen. Data for tumor model P388 Leukemia (intraperitoneal) in CD2F1 (CDF1) mice
# Conditions: endpoint: median survival time, higher = longer survival
# Method in brief: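 Mice carrying the transplanted tumor received test compound or vehicle. Survival was recorded in each group, and the value is the treated-group measurement divided by that of the vehicle-treated control group.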
# [1] = dose: 50.0 mg/kg/injection, schedule: Q01DX005 (ip), vehicle: saline with Tween-80
# [2] = dose: 100.0 mg/kg/injection, schedule: Q01DX005 (ip), vehicle: saline with Tween-80
# [3] = dose: 200.0 mg/kg/injection, schedule: Q01DX005 (ip), vehicle: saline with Tween-80
# [4] = dose: 50.0 mg/kg/injection, schedule: Q01DX009 (ip), vehicle: saline with Tween-80
# [5] = dose: 100.0 mg/kg/injection, schedule: Q01DX009 (ip), vehicle: saline with Tween-80
# [6] = dose: 200.0 mg/kg/injection, schedule: Q01DX009 (ip), vehicle: saline with Tween-80
# [7] = dose: 12.5 mg/kg/injection, schedule: Q01DX009 (ip), vehicle: saline
# [8] = dose: 25.0 mg/kg/injection, schedule: Q01DX009 (ip), vehicle: saline
# [9] = dose: 50.0 mg/kg/injection, schedule: Q01DX009 (ip), vehicle: saline
# [10] = dose: 60.0 mg/kg/injection, schedule: Q01DX005 (ip), vehicle: Klucel (hydroxypropylcellulose) (HPC)
# [11] = dose: 120.0 mg/kg/injection, schedule: Q01DX005 (ip), vehicle: Klucel (hydroxypropylcellulose) (HPC)
# [12] = dose: 60.0 mg/kg/injection, schedule: Q01DX005 (ip), vehicle: saline with Tween-80
# [13] = dose: 60.0 mg/kg/injection, schedule: Q01DX005 (ip), vehicle: saline
# [14] = dose: 120.0 mg/kg/injection, schedule: Q01DX005 (ip), vehicle: saline
# [15] = dose: 240.0 mg/kg/injection, schedule: Q01DX005 (ip), vehicle: saline
# [16] = dose: 240.0 mg/kg/injection, schedule: Q01DX005 (ip), vehicle: Klucel (hydroxypropylcellulose) (HPC)
smiles,measurement,setting,value
COc1ccc([I+]c2cccc(Cl)c2)cc1Cl,T/C,"dose: 0.09 mg/kg/injection, schedule: Q01DX009 (ip), vehicle: saline with Tween-80",106 % of control
same,T/C,"dose: 0.18 mg/kg/injection, schedule: Q01DX009 (ip), vehicle: saline with Tween-80",112 % of control
same,T/C,"dose: 0.37 mg/kg/injection, schedule: Q01DX009 (ip), vehicle: saline with Tween-80",102 % of control
same,T/C,"dose: 0.75 mg/kg/injection, schedule: Q01DX009 (ip), vehicle: saline with Tween-80",122 % of control
same,T/C,"dose: 12.5 mg/kg/injection, schedule: Q01DX009 (ip), vehicle: saline with Tween-80",150 % of control and 159 % of control
same,T/C,"dose: 25.0 mg/kg/injection, schedule: Q01DX009 (ip), vehicle: saline with Tween-80",106 % of control and 112 % of control
CCCC[As](CCCC)SC1CC(OC(=O)c2ccccc2)C(OC(=O)c2ccccc2)C(COC(=O)c2ccccc2)O1 (configuration not stated),T/C,"dose: 6.25 mg/kg/injection, schedule: Q01DX009 (ip), vehicle: saline + alcohol",108 % of control
same,T/C,"dose: 12.5 mg/kg/injection, schedule: Q01DX009 (ip), vehicle: saline + alcohol",95 % of control
same,T/C,"dose: 25.0 mg/kg/injection, schedule: Q01DX009 (ip), vehicle: saline + alcohol",105 % of control
same,T/C,"dose: 50.0 mg/kg/injection, schedule: Q01DX009 (ip), vehicle: saline + alcohol",100 % of control
COCCn1c(=N)c(C(=O)OC)nc2c3ccccc3ccc21,T/C,[1],104 % of control
same,T/C,[2],107 % of control
same,T/C,[3],101 % of control
CCOC(=O)C(=O)c1cn(C)c(=O)n(C)c1=O,T/C,[4],106 % of control
same,T/C,[5],104 % of control
same,T/C,[6],104 % of control
O=C1C=C(c2ccccc2)S(=O)(=O)c2c(O)cccc21,T/C,[1],121 % of control
same,T/C,[2],119 % of control
same,T/C,[3],118 % of control
O=C(c1ccccc1)c1cccc[n+]1Cc1ccccc1,T/C,[7],103 % of control
same,T/C,[8],96 % of control
same,T/C,[9],98 % of control and 100 % of control
N#CC1CCCC(C#N)N1Cc1ccccc1 (configuration not stated),T/C,[10],110 % of control
same,T/C,[11],106 % of control
NC(N)=NN=c1/c(=N\N=C(N)N)c2ccccc2/c1=N/N=C(N)N,T/C,"dose: 25.0 mg/kg/injection, schedule: Q01DX001 (ip), vehicle: saline",99 % of control
CC1(C)OC(=O)C2(O1)C(=O)C1CCCCC12C (configuration not stated),T/C,[12],100 % of control
same,T/C,"dose: 120.0 mg/kg/injection, schedule: Q01DX005 (ip), vehicle: saline with Tween-80",95 % of control
same,T/C,"dose: 240.0 mg/kg/injection, schedule: Q01DX005 (ip), vehicle: saline with Tween-80",95 % of control
Nc1nc(N)c2c(ccc3nc(-c4ccccc4)c(-c4ccccc4)nc32)n1,T/C,"dose: 100.0 mg/kg/injection, schedule: Q01DX001 (ip), vehicle: saline with Tween-80",87 % of control
same,T/C,"dose: 200.0 mg/kg/injection, schedule: Q01DX001 (ip), vehicle: saline with Tween-80",90 % of control
CCOC(=O)C(CC)c1ccccc1 (configuration not stated),T/C,[4],99 % of control
same,T/C,[5],102 % of control
same,T/C,[6],112 % of control
CCCCCCCCCCCCOC(=O)C(N)Cc1ccc(O)cc1 (configuration not stated),T/C,"dose: 50.0 mg/kg/injection, schedule: Q01DX009 (ip), vehicle: Klucel (hydroxypropylcellulose) (HPC)",98 % of control
same,T/C,"dose: 100.0 mg/kg/injection, schedule: Q01DX009 (ip), vehicle: Klucel (hydroxypropylcellulose) (HPC)",102 % of control
same,T/C,"dose: 200.0 mg/kg/injection, schedule: Q01DX009 (ip), vehicle: Klucel (hydroxypropylcellulose) (HPC)",97 % of control
CCCCCc1nc2c(c3c1CCCC3)CCCC2,T/C,[13],98 % of control
same,T/C,[14],106 % of control
same,T/C,[15],107 % of control
COCC(CN1CCN(c2ccccc2OC)CC1)OC (configuration not stated),T/C,[7],97 % of control
same,T/C,[8],98 % of control
same,T/C,[9],90 % of control
O=C(O)C(C1CC(Cl)=NO1)N1C(=O)c2ccccc2C1=O (configuration not stated),T/C,"dose: 6.2 mg/kg/injection, schedule: Q04DX003 (ip), vehicle: other",101 % of control
same,T/C,"dose: 12.5 mg/kg/injection, schedule: Q04DX003 (ip), vehicle: other",100 % of control
same,T/C,"dose: 25.0 mg/kg/injection, schedule: Q04DX003 (ip), vehicle: other",105 % of control
same,T/C,"dose: 50.0 mg/kg/injection, schedule: Q04DX003 (ip), vehicle: other",99 % of control
same,T/C,"dose: 100.0 mg/kg/injection, schedule: Q04DX003 (ip), vehicle: other",101 % of control
same,T/C,"dose: 200.0 mg/kg/injection, schedule: Q04DX003 (ip), vehicle: other",99 % of control
COC(=O)N1C(c2ccccc2)C=CC(c2ccccc2)N1C(=O)OC (configuration not stated),T/C,[10],103 % of control
same,T/C,[11],96 % of control
same,T/C,[16],96 % of control
CCc1c2c(cc3c1[nH]c1ccccc13)C(=O)OC2=O,T/C,"dose: 50.0 mg/kg/injection, schedule: Q01DX005 (ip), vehicle: Klucel (hydroxypropylcellulose) (HPC)",95 % of control
same,T/C,"dose: 100.0 mg/kg/injection, schedule: Q01DX005 (ip), vehicle: Klucel (hydroxypropylcellulose) (HPC)",86 % of control
same,T/C,"dose: 200.0 mg/kg/injection, schedule: Q01DX005 (ip), vehicle: Klucel (hydroxypropylcellulose) (HPC)",98 % of control
CCn1cc(C(=O)NC(C)C(=O)NC(C)P(=O)(O)O)c(=O)c2ccc(C)nc21 (configuration not stated),T/C,"dose: 100.0 mg/kg/injection, schedule: Q04DX002 (ip), vehicle: saline with Tween-80",101 % of control
same,T/C,"dose: 200.0 mg/kg/injection, schedule: Q04DX002 (ip), vehicle: saline with Tween-80",102 % of control
same,T/C,"dose: 400.0 mg/kg/injection, schedule: Q04DX002 (ip), vehicle: saline with Tween-80",101 % of control
CC(=O)CC1C(=O)OC(C)(C)OC1=O,T/C,[1],112 % of control
same,T/C,[2],106 % of control
same,T/C,[3],103 % of control
CC1=NN(C(=O)c2cccnc2)C(=O)C1N=Nc1ccc(S(=O)(=O)N=C(N)N)cc1 (configuration not stated),T/C,"dose: 100.0 mg/kg/injection, schedule: Q04DX003 (ip), vehicle: saline with Tween-80",91 % of control
same,T/C,"dose: 200.0 mg/kg/injection, schedule: Q04DX003 (ip), vehicle: saline with Tween-80",92 % of control
same,T/C,"dose: 400.0 mg/kg/injection, schedule: Q04DX003 (ip), vehicle: saline with Tween-80",88 % of control
O=C(c1ccccc1)C1C(c2ccccc2)C2(CCCCC2=O)C(c2ccccc2)CC1(O)c1ccccc1 (configuration not stated),T/C,"dose: 3.12 mg/kg/injection, schedule: Q01DX001 (ip), vehicle: Klucel (hydroxypropylcellulose) (HPC)",98 % of control
same,T/C,"dose: 6.25 mg/kg/injection, schedule: Q01DX001 (ip), vehicle: Klucel (hydroxypropylcellulose) (HPC)",86 % of control
same,T/C,"dose: 12.5 mg/kg/injection, schedule: Q01DX001 (ip), vehicle: Klucel (hydroxypropylcellulose) (HPC)",86 % of control
same,T/C,"dose: 25.0 mg/kg/injection, schedule: Q01DX001 (ip), vehicle: Klucel (hydroxypropylcellulose) (HPC)",86 % of control
COc1ccc(C2c3cc4c(cc3OC3(N5CCCC5)CCCC23)OCO4)c(OC)c1 (configuration not stated),T/C,[10],99 % of control
same,T/C,[11],95 % of control
same,T/C,[16],96 % of control
C[Si](C)(CCCNCCN)O[Si](C)(C)CCCNCCN,T/C,"dose: 15.0 mg/kg/injection, schedule: Q01DX005 (ip), vehicle: saline with Tween-80",104 % of control
same,T/C,"dose: 30.0 mg/kg/injection, schedule: Q01DX005 (ip), vehicle: saline with Tween-80",118 % of control
same,T/C,[12],94 % of control and 96 % of control
OCc1cnccc1Br,T/C,[13],99 % of control
same,T/C,[14],100 % of control
same,T/C,[15],99 % of control
COC(=O)C1(c2ccccc2)OP2(N(C)C)(OCCN2C)OC1(C(=O)OC)c1ccccc1 (configuration not stated),T/C,[1],104 % of control
same,T/C,[2],98 % of control
same,T/C,[3],91 % of control
CC(=O)N=c1ccc2nc3c(cc(N)c4ccccc43)oc-2c1,T/C,"dose: 10.0 mg/kg/injection, schedule: Q01DX005 (ip), vehicle: Klucel (hydroxypropylcellulose) (HPC)",98 % of control
same,T/C,"dose: 20.0 mg/kg/injection, schedule: Q01DX005 (ip), vehicle: Klucel (hydroxypropylcellulose) (HPC)",100 % of control
same,T/C,"dose: 40.0 mg/kg/injection, schedule: Q01DX005 (ip), vehicle: Klucel (hydroxypropylcellulose) (HPC)",98 % of control
